Assay results: the supplement of paper PMC10307832

Tests used:
Experiment in all cases: relative viability (nuclei count vs DMSO), 5 days (fraction); higher = more cells survive
[1] = compound: CC1=NC=CC(=C1)C2=CC=C(C=C2)CC(=O)NC3=CC=C(C=C3)C4=CN=CC=C4 [Wnt-C59] + CS(=O)(=O)N1CCN(Cc2cc3nc(-c4cccc5[nH]ncc45)nc(N4CCOCC4)c3s2)CC1 [Pictilisib] (partner 1 µM)
Outline: (§1)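 Dosing by pin tool came one day after lung cancer cell lines were seeded in 1536-well plates, using either one drug or a fixed anchor-drug dose plus five library-drug doses (not always all listed) in √10 steps. After 5 days, nuclei were counted on 4× images. Relative viability is treated-well nuclei count divided by vehicle-well nuclei count, and values are medians of duplicate plates.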

[2] = compound: CC1=NC=CC(=C1)C2=CC=C(C=C2)CC(=O)NC3=CC=C(C=C3)C4=CN=CC=C4 [Wnt-C59] + N=C(N)NC(=N)NCCc1ccccc1 [Phenformin] (partner 250 µM)
Outline: as §1

[3] = compound: CS(=O)(=O)CCNCc1ccc(-c2ccc3ncnc(Nc4ccc(OCc5cccc(F)c5)c(Cl)c4)c3c2)o1 [Lapatinib] + N=C(N)NC(=N)NCCc1ccccc1 [Phenformin] (partner 250 µM)
Outline: as §1

[4] = compound: CS(=O)(=O)CCNCc1ccc(-c2ccc3ncnc(Nc4ccc(OCc5cccc(F)c5)c(Cl)c4)c3c2)o1 [Lapatinib] + Cc1nc(Nc2ncc(C(=O)Nc3c(C)cccc3Cl)s2)cc(N2CCN(CCO)CC2)n1 [Dasatinib] (partner 0.075 µM)
Outline: as §1

Cell Line	relative viability ([1]; first compound 0.001 µM)	relative viability ([1]; first compound 0.01 µM)	relative viability ([1]; first compound 0.03162 µM)	relative viability ([1]; first compound 0.1 µM)	relative viability ([2]; first compound 0.001 µM)	relative viability ([2]; first compound 0.01 µM)	relative viability ([2]; first compound 0.03162 µM)	relative viability ([2]; first compound 0.1 µM)	relative viability ([3]; first compound 0.02 µM)	relative viability ([3]; first compound 0.2 µM)	relative viability ([3]; first compound 0.6325 µM)	relative viability ([3]; first compound 2 µM)	relative viability ([4]; first compound 0.02 µM)	relative viability ([4]; first compound 0.2 µM)	relative viability ([4]; first compound 0.6325 µM)	relative viability ([4]; first compound 2 µM)	relative viability ([3]; first compound 0.06325 µM)	relative viability ([4]; first compound 0.06325 µM)
NCI-H2023	0.27	0.244	0.238	0.235	0.406	0.415	0.419	0.35	0.395	0.417	0.429	0.307	0.458	0.516	0.619	0.381	–	–
LOU-NH91	0.541	0.577	0.508	0.565	0.793	0.641	0.601	0.672	0.463	0.479	0.533	0.433	0.365	0.431	0.46	0.404	0.533	0.398
NCI-H727	0.381	0.342	0.43	0.309	0.337	–	0.545	0.66	–	0.536	0.511	0.508	–	0.317	0.338	0.359	–	–
LK-2	0.667	0.653	0.557	0.573	0.479	0.379	0.481	0.321	–	0.606	0.663	0.419	–	0.264	0.283	0.35	–	–
NCI-H322M	0.517	0.426	0.491	0.414	0.775	0.683	0.629	0.581	0.805	0.736	0.693	0.551	0.287	0.246	0.226	0.225	0.736	0.238
NCI-H650	0.838	0.94	0.982	0.685	0.441	0.457	0.483	0.5	–	0.428	0.456	0.473	–	0.404	0.458	0.439	0.467	0.389
NCI-H596	0.43	0.437	0.381	0.421	0.746	0.71	0.923	0.722	–	0.748	0.762	0.685	–	0.621	0.573	0.486	0.654	0.521
PC-3 [JPC-3]	0.832	0.765	0.822	0.72	0.486	0.467	0.52	0.502	0.452	0.457	0.521	0.431	0.877	1	0.977	0.624	0.468	0.87
NCI-H1355	0.486	0.325	0.38	0.393	0.446	0.42	0.456	0.475	–	0.455	0.428	0.367	–	0.705	0.694	0.319	0.37	0.465
COR-L23	0.745	0.653	0.818	0.79	0.427	0.471	0.442	0.416	0.419	0.474	0.455	0.42	0.501	0.508	0.565	0.443	0.421	0.441
201T	0.704	0.676	0.676	0.698	0.446	0.43	0.424	0.452	0.387	0.438	0.44	0.431	0.566	0.596	0.62	0.599	0.343	0.382
NCI-H1792	0.273	0.25	0.225	0.332	0.363	0.301	–	0.22	–	0.219	0.207	0.289	0.763	0.754	0.68	0.425	–	–
NCI-H661	0.414	0.441	0.391	0.442	0.292	0.311	0.27	0.288	0.273	0.273	0.265	0.268	0.759	0.504	0.523	0.368	0.263	0.572
HCC-15	0.74	0.711	0.732	0.723	0.47	0.515	0.48	0.438	–	0.521	0.498	0.484	–	0.591	0.622	0.551	0.398	0.403
NCI-H2405	0.433	–	0.406	0.432	0.413	0.336	0.366	0.384	0.321	0.405	0.372	0.357	0.215	0.208	0.164	0.232	0.278	0.181
NCI-H838	0.463	0.516	0.439	0.42	0.573	0.582	0.588	0.624	0.685	0.675	0.683	0.511	0.263	0.304	0.276	0.247	0.381	–
EPLC-272H	0.366	0.265	0.343	0.338	0.297	0.303	0.335	0.335	–	0.243	0.266	0.241	–	0.359	0.367	0.272	–	–
NCI-H1915	0.97	0.922	0.837	0.958	0.362	0.392	0.385	0.367	–	0.384	0.361	0.39	–	0.337	0.293	0.297	0.375	0.285
EMC-BAC-2	0.5	0.491	0.463	0.453	0.533	0.484	0.525	0.505	0.422	0.532	0.549	0.499	0.294	0.349	0.358	0.279	0.407	0.162
